Assay results reported in patent US20250304623A1, “PEPTIDES FOR INTRACELLULAR DELIVERY” (UNIVERSIDADE DE SANTIAGO DE COMPOSTELA, priority 2022, published 2025).

Columns and labels:
Format in all cases: cell-based
ARPE19 cells [1] = experiment: EGFP mRNA delivery, robotic library screening, ARPE19; conditions: Petroselinyl
Experimental: (§1) Cells were seeded in a 96 well plate the day before the experiment at a concentration of 50,000 cell/mL (100 μL/w) in DMEM+10% FBS+1% Gln-Abt. For robotic library screening, the delivery of EGFP-mRNA (from TriLink, fully substituted with 5-methoxyuridine, capped and polyadenylated; TriLink, CleanCap® EGFP mRNA (5moU), ref. L-7201) in six different cell lines was performed. Amphiphilic molecule stock solutions were prepared in DMSO as described above and diluted in DMEM to afford a range of concentrations. The solutions of EGFP-mRNA/amphiphilic molecule complexes were freshly prepared prior to the transfection experiments. 35 μL of the corresponding amphiphile were added to 10 μL of a solution of EGFP-mRNA at 10 ng/μL in DMEM. The mixture was shaken for 30 min at room temperature before the addition to the cells. The cell medium was aspirated, and cells were washed with PBS twice. Cells were covered with 39 μL of DMEM and 11 μL of the complex's solution were added to the cells and incubated for 4 h (final concentration of peptide=2.5, 5 and 10 μM; final concentration of EGFP-mRNA=25 ng/well). After the incubation, the medium was replaced by 100 μL of fresh DMEM supplemented with 10% FBS. The total EGFP fluorescence was quantified after 72 h in a well plate reader. Amphiphile transfection efficiency was compared and normalized to Lipofectamine® MessengerMax efficiency (value of 1 in Tables 1-5 and 7; double underlined numbers). All experiments were done in triplicate.
(§2) Tables 1-7: RLuc (pDNA) or EGFP (mRNA) expression levels were normalized to Lipofectamine reagents (value=1) and expressed as fold-times signal increase. In the case of siRNA, the siRNA treated cells fluorescence was compared with siMOCK control fluorescence, while Cas9-RNP mediated knockout was measured against the fluorescence of untreated cells. In both siRNA and Cas9-RNP, values are expressed as % fluorescence reduction. Amphiphile concentration was 5 μM in all cases. All experiments were performed in triplicate.
(§3) Tables 14-19 show the mean (triplicates) fluorescence intensity measured after the transfection of EGFP mRNA by different amphiphiles at different concentrations in a variety of cell lines. Background fluorescence values, accounted by untreated control cells, were subtracted for processing.

[2] = test system: A549 cells expressing EGFP; experiment: Cas9-RNP delivery against EGFP (gene editing, plate reader), A549; conditions: A549 cells
Experimental: To generate an EGFP expressing HeLa cell line, HeLa cells were transfected with EGFP pDNA (pEGFP-C1, Clontech) and stable transfectants were selected with 400 μg/mL of G-418 (Millipore). Green clones were selected by epifluorescence microscopy and tested for EGFP expression stability through several passages. […] All other EGFP-expressing cell lines were obtained in a similar way from parent non-EGFP-expressing cell lines.
Cells expressing EGFP were seeded in a 96 well plate the day before the experiment at a concentration of 50,000 cell/mL (100 μL/w) in DMEM+10% FBS+1% Gln-Abt. For robotic library screening, the delivery of Cas9-RNP against EGFP (RNP designed to knock-out the gene encoding for the enhanced green fluorescent protein (EGFP)) was performed. For RNP assembly, 9.2 μL of crRNA and 9.2 μL of tracrRNA were mixed in 211.6 μL of Nuclease-Free Duplex Buffer (IDT), incubated for 5 min at 95° C. and slowly cooled at rt (see I. Lostalé-Seijo, et al. Peptide/Cas9 nanostructures for ribonucleoprotein cell membrane transport and gene edition, Chem. Sci., 2017). Cas9 protein was dissolved in DMEM at a final concentration of 4 μM and equal volumes of the RNA complex and Cas9 were mixed and incubated for 5 min at rt. 75 μL of the corresponding amphiphile concentrations were added to 5 μL of RNP at 2 μM. The mixture was shaken for 30 min at room temperature before the addition to the cells. The cell medium was aspirated, and cells were washed twice with PBS. Cells were covered with 30 μL of DMEM and 20 μL of the RNP/amphiphile complexes were added to the cells (final peptide concentrations=2.5, 5 and 10 μM; final Cas9-RNP concentration=50 nM) and incubated for 4 h. After the incubation, the medium was replaced by 100 μL of fresh DMEM supplemented with 10% FBS. The total EGFP fluorescence was quantified after 72 h in a plate reader (FIG. 2, Table 1 (right) and Table 6). All experiments were done in triplicate.
as §2
Tables 26-31 show the mean (triplicates) percentage of gene editing, accounted by GFP fluorescence intensity decrease (% of reduction), measured after the transfection of Cas9-RNP by different amphiphiles at different concentrations in a variety of cell lines. Background values, accounted by untreated control cells, were subtracted for processing.

ARPE19 cells [3] = experiment: RLuc pDNA delivery, robotic library screening, ARPE19
A549 cells = experiment: EGFP mRNA delivery, robotic library screening, A549
Experimental: as §1, §2, §3

Ac-RHLK*RLK*RRLK*RL-NH2 (Ac-RHLKRLKRRLKRL-NH2; not fully specified (residues 4, 7, 11); printed as Ac-RHLK*RLK*RRLK*RL-NH2; also: linker on K* not given here) [13(Arg-His)]
mean fluorescence intensity (EGFP mRNA) (ARPE19 cells [1]; 5 μM): 472
mean fluorescence intensity (EGFP mRNA) (ARPE19 cells [1]; 10 μM): 216
percentage of gene editing, GFP fluorescence intensity decrease (% of reduction) ([2]; Dodecanal, 5 μM): 27%
percentage of gene editing, GFP fluorescence intensity decrease (% of reduction) ([2]; Dodecanal, 10 μM): 18%
percentage of gene editing, GFP fluorescence intensity decrease (% of reduction) ([2]; Myristoleyl, 5 μM): 5%
percentage of gene editing, GFP fluorescence intensity decrease (% of reduction) ([2]; Myristoleyl, 10 μM): 9%
percentage of gene editing, GFP fluorescence intensity decrease (% of reduction) ([2]; Oleyl, 5 μM): 20%
percentage of gene editing, GFP fluorescence intensity decrease (% of reduction) ([2]; Oleyl, 15 μM): 15%
percentage of gene editing, GFP fluorescence intensity decrease (% of reduction) ([2]; Palmitoleyl, 5 μM): 15%
percentage of gene editing, GFP fluorescence intensity decrease (% of reduction) ([2]; Palmitoleyl, 10 μM): 10%
percentage of gene editing, GFP fluorescence intensity decrease (% of reduction) ([2]; Palmitoleyl, 15 μM): 22%
percentage of gene editing, GFP fluorescence intensity decrease (% of reduction) ([2]; Petroselinyl, 5 μM): 29%
mean luminescent intensity (RLuc pDNA) (ARPE19 cells [3]; Dodecanal, 5 μM): 69520 RLU
mean luminescent intensity (RLuc pDNA) (ARPE19 cells [3]; Dodecanal, 10 μM): 2762 RLU
mean luminescent intensity (RLuc pDNA) (ARPE19 cells [3]; Myristoleyl, 5 μM): 17 RLU
mean luminescent intensity (RLuc pDNA) (ARPE19 cells [3]; Myristoleyl, 10 μM): −31 RLU
mean luminescent intensity (RLuc pDNA) (ARPE19 cells [3]; Myristoleyl, 15 μM): −11 RLU
mean luminescent intensity (RLuc pDNA) (ARPE19 cells [3]; Oleyl, 5 μM): 8369 RLU
mean luminescent intensity (RLuc pDNA) (ARPE19 cells [3]; Oleyl, 10 μM): 2379 RLU
mean luminescent intensity (RLuc pDNA) (ARPE19 cells [3]; Oleyl, 15 μM): 716 RLU
mean luminescent intensity (RLuc pDNA) (ARPE19 cells [3]; Palmitoleyl, 5 μM): 67443 RLU
mean luminescent intensity (RLuc pDNA) (ARPE19 cells [3]; Palmitoleyl, 15 μM): 670 RLU
mean luminescent intensity (RLuc pDNA) (ARPE19 cells [3]; Petroselinyl, 5 μM): 44329 RLU
mean luminescent intensity (RLuc pDNA) (ARPE19 cells [3]; Petroselinyl, 10 μM): 2986 RLU
mean luminescent intensity (RLuc pDNA) (ARPE19 cells [3]; Petroselinyl, 15 μM): 1967 RLU
mean fluorescence intensity (EGFP mRNA) (A549 cells; Dodecanal, 2.5 μM): 626
mean fluorescence intensity (EGFP mRNA) (A549 cells; Myristoleyl, 2.5 μM): 392
mean fluorescence intensity (EGFP mRNA) (A549 cells; Oleyl, 2.5 μM): 886
mean fluorescence intensity (EGFP mRNA) (A549 cells; Oleyl, 5 μM): 719
mean fluorescence intensity (EGFP mRNA) (A549 cells; Oleyl, 10 μM): 386
mean fluorescence intensity (EGFP mRNA) (A549 cells; Palmitoleyl, 2.5 μM): 1177
mean fluorescence intensity (EGFP mRNA) (A549 cells; Palmitoleyl, 5 μM): 348
mean fluorescence intensity (EGFP mRNA) (A549 cells; Palmitoleyl, 10 μM): 437
mean fluorescence intensity (EGFP mRNA) (A549 cells; Petroselinyl, 2.5 μM): 652
mean fluorescence intensity (EGFP mRNA) (A549 cells; Petroselinyl, 5 μM): 306
mean fluorescence intensity (EGFP mRNA) (A549 cells; Petroselinyl, 10 μM): 151
